Legend:
Experiment in all cases: cells
Assay type in all cases: functional, cell-based, Homo sapiens
RPMI-6666 = conditions: Homo sapiens, RPMI-6666
Description: SANGER: Inhibition of human RPMI-6666 cell growth in a cell viability assay.

8305C = conditions: Homo sapiens, 8305C
Description: SANGER: Inhibition of human 8305C cell growth in a cell viability assay.

DOK = conditions: Homo sapiens, DOK;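 also: cell viability assay read-out, values reflect inhibition of cell growth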
Description: SANGER: Inhibition of human DOK cell growth in a cell viability assay.

COLO-741 = conditions: Homo sapiens, COLO-741
Description: SANGER: Inhibition of human COLO-741 cell growth in a cell viability assay.

LC-1F = conditions: Homo sapiens, LC-1F;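 also: growth inhibition of human LC-1F cells, read out with a cell viability assay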
Description: SANGER: Inhibition of human LC-1F cell growth in a cell viability assay.

COLO-679 = conditions: Homo sapiens, COLO-679
Description: SANGER: Inhibition of human COLO-679 cell growth in a cell viability assay.

HOP-92 = conditions: Homo sapiens, HOP-92;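 also: cell viability readout, with IC50 reflecting inhibition of HOP-92 cell growth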
Description: SANGER: Inhibition of human HOP-92 cell growth in a cell viability assay.

NCI-H1755 = conditions: Homo sapiens, NCI-H1755;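 also: cell viability readout used to measure growth inhibition of NCI-H1755 cells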
Description: SANGER: Inhibition of human NCI-H1755 cell growth in a cell viability assay.

HCC1599 = conditions: Homo sapiens, HCC1599;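 also: growth inhibition of HCC1599 cells, read out in a cell viability assay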
Description: SANGER: Inhibition of human HCC1599 cell growth in a cell viability assay.

MDA-MB-231 = conditions: Homo sapiens, MDA-MB-231
Description: SANGER: Inhibition of human MDA-MB-231 cell growth in a cell viability assay.

TYK-nu = conditions: Homo sapiens, TYK-nu;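 also: growth inhibition of human TYK-nu cells, read out by a cell viability assay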
Description: SANGER: Inhibition of human TYK-nu cell growth in a cell viability assay.

NALM-6 = conditions: Homo sapiens, NALM-6;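 also: growth inhibition of NALM-6 cells, read out with a cell viability assay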
Description: SANGER: Inhibition of human NALM-6 cell growth in a cell viability assay.

KP-N-YN = conditions: Homo sapiens, KP-N-YN;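 also: growth inhibition of KP-N-YN cells, read out with a cell viability assay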
Description: SANGER: Inhibition of human KP-N-YN cell growth in a cell viability assay.

NCI-H1623 = conditions: Homo sapiens, NCI-H1623;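 also: cell viability assay used as the read-out for growth inhibition of NCI-H1623 cells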
Description: SANGER: Inhibition of human NCI-H1623 cell growth in a cell viability assay.

FTC-133 = conditions: Homo sapiens, FTC-133
NCI-H524 = conditions: Homo sapiens, NCI-H524;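 also: growth inhibition of human NCI-H524 cells, read out through a cell viability assay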
Description: SANGER: Inhibition of human NCI-H524 cell growth in a cell viability assay.

NCI-H441 = conditions: Homo sapiens, NCI-H441;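 also: growth inhibition of NCI-H441 cells, read out with a cell viability assay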
Description: SANGER: Inhibition of human NCI-H441 cell growth in a cell viability assay.

KU-19-19 = conditions: Homo sapiens, KU-19-19
Description: SANGER: Inhibition of human KU-19-19 cell growth in a cell viability assay.

IST-SL2 = conditions: Homo sapiens, IST-SL2;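 also: growth inhibition of human IST-SL2 cells, read out by a cell viability assay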
Description: SANGER: Inhibition of human IST-SL2 cell growth in a cell viability assay.

BT-20 = conditions: Homo sapiens, BT-20;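 also: cell viability assay measuring suppression of growth in human BT-20 cells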
Description: SANGER: Inhibition of human BT-20 cell growth in a cell viability assay.

SAOS-2 = conditions: Homo sapiens, SAOS-2;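 also: growth inhibition of human Saos-2 cells determined by a cell viability assay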
Description: SANGER: Inhibition of human Saos-2 cell growth in a cell viability assay.

BPH-1 = conditions: Homo sapiens, BPH-1;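 also: cell viability assay measuring growth inhibition of human BPH-1 cells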
Description: SANGER: Inhibition of human BPH-1 cell growth in a cell viability assay.

DoTc2-4510 = conditions: Homo sapiens, DoTc2-4510
WSU-NHL = conditions: Homo sapiens, WSU-NHL;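 also: growth inhibition of human WSU-NHL cells, read out with a cell viability assay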
Description: SANGER: Inhibition of human WSU-NHL cell growth in a cell viability assay.

S-117 = conditions: Homo sapiens, S-117
Description: SANGER: Inhibition of human S-117 cell growth in a cell viability assay.

MFE-280 = conditions: Homo sapiens, MFE-280;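 also: growth inhibition of MFE-280 cells, determined with a cell viability readout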
Description: SANGER: Inhibition of human MFE-280 cell growth in a cell viability assay.

OE33 = conditions: Homo sapiens, OE33;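 also: growth inhibition of human OE33 cells, measured by a cell viability assay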
Description: SANGER: Inhibition of human OE33 cell growth in a cell viability assay.

CaR-1 = conditions: Homo sapiens, CaR-1;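 also: growth inhibition of human CaR-1 cancer cells, read out with a cell viability assay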
Description: SANGER: Inhibition of human CaR-1 cell growth in a cell viability assay.

NCI-H1573 = conditions: Homo sapiens, NCI-H1573;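 also: growth inhibition of NCI-H1573 cells, read out with a cell viability assay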
Description: SANGER: Inhibition of human NCI-H1573 cell growth in a cell viability assay.

CA46 = conditions: Homo sapiens, CA46;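 also: growth inhibition of human CA46 cells, read out by a cell viability assay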
Description: SANGER: Inhibition of human CA46 cell growth in a cell viability assay.

A2058 = conditions: Homo sapiens, A2058;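 also: reduction of A2058 cell growth, read out with a viability assay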
Description: SANGER: Inhibition of human A2058 cell growth in a cell viability assay.

BFTC-905 = conditions: Homo sapiens, BFTC-905
Description: SANGER: Inhibition of human BFTC-905 cell growth in a cell viability assay.

OAW-42 = conditions: Homo sapiens, OAW-42;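 also: growth inhibition of OAW-42 cells, read out with a cell viability assay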
Description: SANGER: Inhibition of human OAW-42 cell growth in a cell viability assay.

KYSE-270 = conditions: Homo sapiens, KYSE-270;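 also: cell growth inhibition measured with a viability assay in the human KYSE-270 line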
Description: SANGER: Inhibition of human KYSE-270 cell growth in a cell viability assay.

Huh-7 = conditions: Homo sapiens, Huh-7;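 also: HuH-7 cell growth inhibition, read out with a cell viability assay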
Description: SANGER: Inhibition of human HuH-7 cell growth in a cell viability assay.

BL-41 = conditions: Homo sapiens, BL-41;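 also: growth inhibition of human BL-41 cells, read out with a cell viability assay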
Description: SANGER: Inhibition of human BL-41 cell growth in a cell viability assay.

MDA-MB-415 = conditions: Homo sapiens, MDA-MB-415
NCI-H2030 = conditions: Homo sapiens, NCI-H2030;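 also: growth inhibition of human NCI-H2030 cells, read out by a cell viability assay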
Description: SANGER: Inhibition of human NCI-H2030 cell growth in a cell viability assay.

NCI-H2196 = conditions: Homo sapiens, NCI-H2196;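 also: cell viability assay used as the readout of growth inhibition in NCI-H2196 cells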
Description: SANGER: Inhibition of human NCI-H2196 cell growth in a cell viability assay.

TE-15 = conditions: Homo sapiens, TE-15;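 also: cell viability readout of growth inhibition in TE-15 cells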
Description: SANGER: Inhibition of human TE-15 cell growth in a cell viability assay.

NCI-H1993 = conditions: Homo sapiens, NCI-H1993;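 also: growth inhibition of the cancer cell line, assessed with a cell viability assay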
Description: SANGER: Inhibition of human NCI-H1993 cell growth in a cell viability assay.

LCLC-97TM1 = conditions: Homo sapiens, LCLC-97TM1;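 also: cell viability assay measuring growth inhibition of human LCLC-97TM1 cells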
Description: SANGER: Inhibition of human LCLC-97TM1 cell growth in a cell viability assay.

SW13 = conditions: Homo sapiens, SW13;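 also: IC50 is inhibition of SW13 cell growth, read out with a cell viability assay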
Description: SANGER: Inhibition of human SW13 cell growth in a cell viability assay.

SK-MES-1 = conditions: Homo sapiens, SK-MES-1;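 also: growth inhibition of human SK-MES-1 cells, read out with a cell viability assay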
Description: SANGER: Inhibition of human SK-MES-1 cell growth in a cell viability assay.

NCI-H2227 = conditions: Homo sapiens, NCI-H2227;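 also: growth inhibition of the human cell line, read out with a cell viability assay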
Description: SANGER: Inhibition of human NCI-H2227 cell growth in a cell viability assay.

EGI-1 = conditions: Homo sapiens, EGI-1;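 also: cell viability readout used to gauge growth inhibition of EGI-1 cells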
Description: SANGER: Inhibition of human EGI-1 cell growth in a cell viability assay.

For `Oc1ccc2ccccc2c1SSc1c(O)ccc2ccccc12`, the IC50 (RPMI-6666) was greater than 32 µM, the IC50 (8305C) was 4.17 µM and the IC50 (DOK) was greater than 32 µM. It also gave an IC50 (COLO-741) of 18 µM, an IC50 (LC-1F) greater than 32 µM and an IC50 (COLO-679) of 28.7 µM. For the same compound, the IC50 (HOP-92) was greater than 32 µM, the IC50 (NCI-H1755) was greater than 32 µM and the IC50 (HCC1599) was greater than 32 µM. The IC50 (MDA-MB-231) was greater than 32 µM, the IC50 (TYK-nu) was greater than 32 µM and the IC50 (NALM-6) was 0.977 µM. The IC50 (KP-N-YN) was greater than 32 µM, the IC50 (NCI-H1623) was greater than 32 µM and the IC50 (FTC-133) was greater than 32 µM. For the same compound, the IC50 (NCI-H524) was greater than 32 µM, the IC50 (NCI-H441) was greater than 32 µM and the IC50 (KU-19-19) was greater than 32 µM. The IC50 (IST-SL2) was 20.7 µM, the IC50 (BT-20) was greater than 32 µM and the IC50 (SAOS-2) was greater than 32 µM. It also gave an IC50 (BPH-1) greater than 32 µM, an IC50 (DoTc2-4510) of 10.5 µM and an IC50 (WSU-NHL) of 5.52 µM. The IC50 (S-117) was 31.4 µM, the IC50 (MFE-280) was greater than 32 µM and the IC50 (OE33) was greater than 32 µM. The IC50 (CaR-1) was greater than 32 µM, the IC50 (NCI-H1573) was greater than 32 µM and the IC50 (CA46) was 3.66 µM. For the same compound, the IC50 (A2058) was greater than 32 µM, the IC50 (BFTC-905) was 5.15 µM and the IC50 (OAW-42) was greater than 32 µM. The IC50 (KYSE-270) was greater than 32 µM, the IC50 (Huh-7) was greater than 32 µM and the IC50 (BL-41) was 3.1 µM. For the same compound, the IC50 (MDA-MB-415) was greater than 32 µM, the IC50 (NCI-H2030) was greater than 32 µM and the IC50 (NCI-H2196) was greater than 32 µM. It also gave an IC50 (TE-15) greater than 32 µM, an IC50 (NCI-H1993) greater than 32 µM and an IC50 (LCLC-97TM1) greater than 32 µM. For the same compound, the IC50 (SW13) was greater than 32 µM, the IC50 (SK-MES-1) was 11.6 µM and the IC50 (NCI-H2227) was greater than 32 µM. The IC50 (EGI-1) was greater than 32 µM.

Work on `COc1cc2ncn(-c3cc(OCc4ccccc4S(C)(=O)=O)c(C#N)s3)c2cc1OC` [GSK-319347A] yielded an IC50 (RPMI-6666) greater than 5 µM, an IC50 (LC-1F) greater than 5 µM and an IC50 (HCC1599) greater than 5 µM. For the same compound, the IC50 (NALM-6) was greater than 5 µM, the IC50 (KP-N-YN) was greater than 5 µM and the IC50 (NCI-H524) was greater than 5 µM. It also gave an IC50 (IST-SL2) greater than 5 µM, an IC50 (WSU-NHL) greater than 5 µM and an IC50 (CA46) greater than 5 µM. It also gave an IC50 (BL-41) greater than 5 µM, an IC50 (NCI-H2196) greater than 5 µM and an IC50 (TE-15) greater than 5 µM. The IC50 (NCI-H2227) was greater than 5 µM.

`COc1cc(N2CCN(C)CC2)ccc1Nc1ncc2c(n1)N(C)c1ccccc1C(=O)N2C` gave an IC50 (RPMI-6666) of 7.86 µM, an IC50 (LC-1F) greater than 8 µM and an IC50 (HCC1599) greater than 8 µM. The IC50 (NALM-6) was 4.96 µM, the IC50 (KP-N-YN) was greater than 8 µM and the IC50 (NCI-H524) was greater than 8 µM. For the same compound, the IC50 (IST-SL2) was 3.82 µM, the IC50 (WSU-NHL) was greater than 8 µM and the IC50 (CA46) was greater than 8 µM. The IC50 (BL-41) was 3.65 µM, the IC50 (NCI-H2196) was greater than 8 µM and the IC50 (TE-15) was greater than 8 µM. For the same compound, the IC50 (NCI-H2227) was greater than 8 µM.

`Nc1ccn([C@@H]2O[C@H](CO)[C@@H](O)C2(F)F)c(=O)n1` [GEMCITABINE] gave an IC50 (RPMI-6666) of less than 0.004 µM, an IC50 (8305C) of 0.00964 µM and an IC50 (DOK) greater than 1.02 µM. For the same compound, the IC50 (COLO-741) was 0.12 µM, the IC50 (LC-1F) was greater than 1.02 µM and the IC50 (COLO-679) was 0.0101 µM. For the same compound, the IC50 (HOP-92) was 0.951 µM, the IC50 (NCI-H1755) was 0.718 µM and the IC50 (HCC1599) was 0.0702 µM. For the same compound, the IC50 (MDA-MB-231) was 0.0278 µM, the IC50 (TYK-nu) was 0.0726 µM and the IC50 (NALM-6) was less than 0.004 µM. The IC50 (NCI-H1623) was 0.187 µM, the IC50 (FTC-133) was 0.0875 µM and the IC50 (NCI-H524) was greater than 1.02 µM. It also gave an IC50 (NCI-H441) of 0.0056 µM, an IC50 (KU-19-19) greater than 1.02 µM and an IC50 (IST-SL2) of less than 0.004 µM. It also gave an IC50 (BT-20) of 0.182 µM, an IC50 (SAOS-2) greater than 1.02 µM and an IC50 (BPH-1) of 0.0203 µM. The IC50 (DoTc2-4510) was less than 0.004 µM, the IC50 (WSU-NHL) was 0.0503 µM and the IC50 (S-117) was greater than 1.02 µM. It also gave an IC50 (MFE-280) greater than 1.02 µM, an IC50 (OE33) of 0.0612 µM and an IC50 (CaR-1) of 0.551 µM. For the same compound, the IC50 (NCI-H1573) was greater than 1.02 µM, the IC50 (CA46) was 0.293 µM and the IC50 (A2058) was 0.0328 µM. For the same compound, the IC50 (BFTC-905) was less than 0.004 µM, the IC50 (OAW-42) was 0.0921 µM and the IC50 (KYSE-270) was less than 0.004 µM. For the same compound, the IC50 (Huh-7) was 0.569 µM, the IC50 (BL-41) was 0.0144 µM and the IC50 (MDA-MB-415) was greater than 1.02 µM. For the same compound, the IC50 (NCI-H2030) was 0.0304 µM, the IC50 (NCI-H2196) was greater than 1.02 µM and the IC50 (TE-15) was less than 0.004 µM. The IC50 (NCI-H1993) was greater than 1.02 µM, the IC50 (LCLC-97TM1) was less than 0.004 µM and the IC50 (SW13) was 0.33 µM. It also gave an IC50 (SK-MES-1) of less than 0.004 µM, an IC50 (NCI-H2227) greater than 1.02 µM and an IC50 (EGI-1) of 0.214 µM.

From ChEMBL document CHEMBL1201861, “Genomics of Drug Sensitity in Cancer screening data, Wellcome Trust Sanger Institute”
